The source of these data is patent publication EP1242382B1, “TRICYCLIC PROTEIN KINASE INHIBITORS” (Wyeth, priority 1999, dated 2001).

The term IC50 denotes the concentration that inhibits the measured activity by half.

Converted amounts (≈) assume the structure as drawn.

For one test, the system named is MDA-MB-435. Kind of test: Inhibition of cancer cell growth as measured by cell number (Sulforhodamine B). The conditions noted are these: Homo sapiens, 48 hours exposure. It is filed as cell-based. The procedure:
(§1) Human tumor cell lines are plated in 96-well plates (250 µl/well, 1-6 x 10^4 cells/ml) in RPMI 1640 medium, containing 5% FBS (Fetal Bovine Serum). Twenty four hours after plating, test compounds are added at various concentrations. After 48 hours exposure to test compounds, cells are fixed with trichloroacetic acid, and stained with Sulforhodamine B. After washing with trichloroacetic acid, bound dye is solubilized in 10 mM Tris base and optical density is determined using plate reader. Under conditions of the assay the optical density is proportional to the number of cells in the well. […] The test procedure is described in detail by Philip Skehan et. al, J. Natl. Canc. Inst., 82, 1107-1112 (1990). […] Information about some of the cell lines used in these test procedures is available from the American Type Tissue Collection: Cell Lines and Hybridomas, 1994 Reference Guide, 8th Edition.

Another test has as its system SK-BR3. Described as above. The format is cell-based. The conditions noted are these: Homo sapiens, SK-BR-3; 48 hours exposure. The procedure: as §1
In a further test the target is T1, Raf-1 (c-Raf) (Homo sapiens, UniProt P04049).
T1 construct: Sf9 insect cell lysate containing full length 6his-tagged recombinant human c-Raf; host or cells: c-Raf: Sf9 insect cell lysate; MEK1 and MAPK: E. coli
T1 sequence (P04049 whole entry): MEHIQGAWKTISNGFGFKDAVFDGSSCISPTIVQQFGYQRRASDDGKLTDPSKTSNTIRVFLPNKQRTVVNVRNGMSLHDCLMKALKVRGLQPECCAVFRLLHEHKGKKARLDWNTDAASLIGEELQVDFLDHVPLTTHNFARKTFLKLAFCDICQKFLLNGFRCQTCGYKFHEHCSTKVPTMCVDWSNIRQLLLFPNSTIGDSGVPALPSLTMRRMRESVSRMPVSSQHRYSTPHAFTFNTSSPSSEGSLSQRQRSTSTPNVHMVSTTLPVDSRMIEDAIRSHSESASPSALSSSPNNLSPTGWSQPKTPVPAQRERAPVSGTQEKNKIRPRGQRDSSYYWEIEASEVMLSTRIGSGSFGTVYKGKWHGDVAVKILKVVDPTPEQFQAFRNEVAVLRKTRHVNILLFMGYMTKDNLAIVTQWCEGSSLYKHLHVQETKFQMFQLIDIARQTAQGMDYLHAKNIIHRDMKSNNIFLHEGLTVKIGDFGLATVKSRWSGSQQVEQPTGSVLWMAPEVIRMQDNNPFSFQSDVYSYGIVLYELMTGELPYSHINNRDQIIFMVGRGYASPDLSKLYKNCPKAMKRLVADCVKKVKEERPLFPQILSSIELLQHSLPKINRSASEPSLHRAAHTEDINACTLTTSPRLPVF
Kind of test: Raf1 kinase cascade assay procedure. The format is biochemical.

Take `COc1cc2cc3c(Nc4ccc(OCc5ccccc5)c(Cl)c4)c(C#N)cnc3cc2cc1OCCN1CCOCC1` [Example 218, 4-(4-Benzyloxy-3-chlorophenylamino)-7-methoxy-8-(2-morpholin-4-yl-ethoxy)benzo[g]quinoline-3-carbonitrile]: the IC50 with MDA-MB-435 was 33.5 µg/mL (≈ 56.3 µM); with SK-BR3, 3.5 µg/mL (≈ 5.88 µM); against Raf-1 (c-Raf), 660 nM.
